Results reported in US6274611A, “Methods and compositions for inhibition of viral replication” (The United States of America as represented by the …, priority 1999, dated 2001).
“Also recorded” adds a separate entry of the source.

Columns and labels:
HIV-1 [1] = experiment: HIV-1 activation in TNF-α-treated OM-10.1 cultures, culture supernatant reverse transcriptase activity; type: cell-based, HIV-1 in OM-10.1 cells; details: for HIV-1 inhibitory activity in the OM-10.1 induction system: OM-10.1 cells, TNF-α induction
Procedure: (§1) FIG. 2 is a graph showing the inhibition of HIV-1 expression and toxicity in OM-10.1 cells by DRB, and similarity to inhibition imposed by chrysin and PD 144795. Reverse transcriptase activity (--.ae butted.--) was measured (as taught in Butera et al, Mol. Med. vol. 1, pp. 758-767 (1995)) in culture supernatants 48 hr after HIV activation, and cell viability (--.tangle-solidup.--) was assessed at 24 hr by flow cytometric analysis of propidium iodide exclusion. Inset: A graph showing the inhibition of HIV-1 expression in OM-10.1 cells by chrysin- (--Δ--) and PD 144795 (--.star.--) treatment of HIV-1.
(§2) OM-10.1 and HL-60 cells as described in Example 1 were propagated in RPMI-1640 supplemented with 10% heat-inactivated fetal calf serum, 2 mM glutamine, and 1% Pen-Strep. Induction of HIV-1 using TNF-α (Butera, S. T., et al, J. Virol. Vol. 65, pp. 4645-4653 (1991)), and antiviral assays (Butera, S. T., et al MoL Med. Vol. 1, pp. 758-767 (1995), Critchfield, J. W., et al., AIDS Res. Hum. Retr. Vol. 12, pp. 39-46 (1996)), were performed as described. For binding studies, cultures were grown to a density of 106 /ml, washed twice with cold PBS, and the cell pellet either flash-frozen in dry ice/ethanol for storage at -70° C., or immediately lysed in 1 ml cold lysis buffer/10^7 cells. Lysis buffer consisted of 0.02 M HEPES (pH 7.4), 0.5% Triton X-100, 0.3 M NaCl, 20 mM NaF, 1 mM each of Na4 P2 O7, Na3 VO4, DTT, EGTA and EDTA, 1 μg/ml each of leupeptin, aprotinin, and pepstatin, 0.5 mM PMSF, and 50 nM okadaic acid. Lysates were incubated on ice for 15 min, centrifuged at 10,000×g for 15 minutes at 4° C., then the supernatants were either used immediately or stored -70° C. For binding reactions with the chrysin affinity resin, lysates (2 ml) were diluted 1:2 with ice-cold 0.02 M HEPES (pH 7.4), then competitor compounds (or 0.1% final DMSO as the control), as indicated, were added to a final concentration of 10 μM and the lysates incubated on ice for 30 min. Chrysin-Sepharose (0.2 ml) was then added and the reactions gently mixed for 1 hr at 4° C. After 3 washes with cold 0.02 M HEPES (pH 7.4), 0.15 M NaCl, 0.25% Triton X-100, bound proteins were eluted with 2 ml 0.02 M ethanolamine (pH 9.5), 0.1% SDS, 0.5 mM chrysin, 1.0% DMSO at 23° C. Samples were concentrated via centrifugation at 23° C. through a 10 kD cut-off membrane (Centricon), then analyzed by SDS-PAGE (8%), and silver stained.
HIV-1 activation experiments were conducted in the presence or absence of DRB. […] Furthermore, the effective dose range of DRB (1-10 μM) was nearly identical to that of the other compounds (FIG. 2, inset), and toxicity over the effective dose range for the other compounds was also negligible.

[2] = system: chrysin-binding proteins p44, p40, p29, p28 (subunits of CKII); experiment: Chrysin affinity resin binding reaction with competitor compounds in OM-10.1 cell lysates (SDS-PAGE silver stain, anti-CKII immunoblot); design: species or system human; details: for effect of competitor on binding of proteins (p44, p40, p29, p28) to the chrysin-resin: competitor 10 μM added to lysate of TNF-α-induced OM-10.1 cells; for effect of competitor on binding of proteins (p44, p40, p29, p28) to the chrysin-resin / effect of competitor on binding of p28 to chrysin resin: silver staining; for effect of competitor on immunodetection of α, α' and β subunits of CKII bound to the chrysin resin / effect of competitor on binding of p28 to chrysin resin: competitor 10 μM; for effect of competitor on immunodetection of α, α' and β subunits of CKII bound to the chrysin resin: anti-CKII immunoblot
Procedure: The affinity resin was made by attachment of 4'-OH-chrysin chrysin (apigenin) to epoxy-activated Sepharose 6B, resulting in chrysin in an ether-linkage. The resin (2 g, dry) was washed with water then 0.1 N NaOH, added to 60 ml 0.01 M apigenin in 0.1 N NaOH (or 0.1 N NaOH only for a non-derivatized control resin), and incubated with gentle mixing for 24 hr at 37° C. The resin then underwent a series of washes (Ghenbot, et al., Prot. Expr. Purif. Vol. 3, pp. 470-478 (1992)) and the residual reactive groups capped with 0.1 M ethanolamine for 16 hr at 37° C. After washing with water, the resin was stored at 4° C. in 0.2% NaN3.
as §2
For Western analysis, proteins were transferred to PVDF and probed with a combination of two antibody reagents, one recognizing an epitope common to both the α and α' subunit of CKII (Upstate Biotechnology) and the other reacting with the β subunit of CKII (a gift from D. Litchfield, University of Western Ontario). Final detection was with enhanced chemiluminescence (Amersham).
To identify the targets of HIV-1 inhibitory flavonoids, Sepharose was derivatized with the flavonoid chrysin and interacted with lysates from OM-10.1 cells as described in Example I. Cultures induced to maximally express HIV-1 (24 hr treatment with TNF-α) were utilized to ensure the presence of both cellular and viral proteins.
To further confirm that the chrysin-binding proteins were indeed the subunits of CKII, resin-binding reactions were performed using a selective inhibitor of CKII activity, 5,6 dichloro-1-β-D-ribofuranosylbenzimidazole (DRB), and the results analyzed by silver staining and anti-CKII immunoblotting. […] Since the apparent mass of the β chain of CKII is increased by phosphorylation (Luscher, B. L., et al. Eur. J. Biochem. Vol. 220, pp. 521-526 (1994)), it was possible that p28 represented an unphosphorylated form of p29. […] Furthermore, the major p28 band observed by silver stain was absent by immunoblot analysis. This absence was not due to an inability of the CKIIβ antibody to recognize dephosphorylated CKIIβ, which had lower apparent mass following alkaline phosphatase treatment. […]

OM-10.1 cells = experiment: OM-10.1 culture viability (flow cytometric propidium iodide exclusion); type: cell-based, human; details: OM-10.1 cultures; viability assessed at 24 hr
Procedure: as §1

NF-κB = NF-κB activation and I-κB degradation upon cellular activation; type: cell-based
casein kinase I = details: Shugar 1994; cited from earlier work
[3] = biological target: human recombinant CKII (ααββ form) (Homo sapiens, UniProt P68400); experiment: Human recombinant CKII enzyme kinetics; type: biochemical; details: for inhibition of CKII enzymatic activity: 37° C.
Chain of human recombinant CKII (ααββ form) (P68400 whole entry): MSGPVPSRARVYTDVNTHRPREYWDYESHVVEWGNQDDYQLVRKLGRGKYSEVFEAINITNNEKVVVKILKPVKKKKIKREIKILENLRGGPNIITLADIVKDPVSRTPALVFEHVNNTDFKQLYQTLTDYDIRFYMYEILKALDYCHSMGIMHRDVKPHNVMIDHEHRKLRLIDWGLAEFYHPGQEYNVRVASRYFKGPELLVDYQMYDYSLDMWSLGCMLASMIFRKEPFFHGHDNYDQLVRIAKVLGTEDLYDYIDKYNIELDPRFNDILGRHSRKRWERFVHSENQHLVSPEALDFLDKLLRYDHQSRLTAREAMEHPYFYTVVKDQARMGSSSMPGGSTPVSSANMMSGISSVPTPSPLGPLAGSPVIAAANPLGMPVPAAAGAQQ
Chain of human recombinant CKII (ααββ form) (P67870 whole entry partner): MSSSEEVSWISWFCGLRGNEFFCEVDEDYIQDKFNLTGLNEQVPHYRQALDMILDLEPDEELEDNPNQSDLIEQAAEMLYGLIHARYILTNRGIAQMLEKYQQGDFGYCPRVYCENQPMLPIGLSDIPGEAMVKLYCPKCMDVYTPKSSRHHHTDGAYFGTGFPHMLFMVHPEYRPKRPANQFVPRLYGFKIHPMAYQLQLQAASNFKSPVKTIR
Procedure: Reactions were carried out at 37° C. in 0.025 M HEPES (pH 7.4), 0.15 M KCl, 0.01 M MgCl2, 1.4 mM β-mercaptoethanol, 1 mM DTT, 1 mM EGTA, 10% glycerol, 0.32 mM synthetic CKII peptide, ([…]), 1 μU/μl CKII, and the indicated concentrations of ATP and test agents. Unincorporated [γ-^32 P] ATP was removed by spotting reactions onto P81 phosphocellulose paper (Whatman) and washing in 0.75 mM phosphoric acid then acetone.

HIV-1 [4] = details: latently and chronically infected cells; Butera et al. 1995, Critchfield et al. 1996; cited from earlier work
HIV-1 [5] = experiment: Down modulation of cell surface CD4 in TNF-α-induced OM-10.1 cultures; type: cell-based, HIV-1 in OM-10.1 cells
Text: Critical tools for studying the efferent phase of the HIV life cycle are the latently infected cell lines such as UI, ACH2, J1, and OM-10.1. […] HIV activation can also be achieved by phorbol esters such as PMA (phorbol -12-myristate-13-acetate).
The CD4 response is a direct consequence of viral activation and allows a rapid, convenient and highly reproducible assessment of treatments that modify TNF-α expression of HIV from its latent state. In addition, the down modulation of CD4 is not affected by inhibitors of virion assembly or release such as protease inhibitors. Thus, by measuring cell surface CD4 and a virion constituent such as reverse transcriptase (RT), it is possible to discriminate between inhibition of HIV assembly, release and earlier events.

HIV = details: acutely infected H9 cells (baicalin also CEM-ss cells and PBMCs); cited from earlier work

NCCNS(=O)(=O)c1ccc(Cl)c2ccncc12 [CKI-7]
HIV-1 inhibitory activity in the OM-10.1 induction system (HIV-1 [1]): without HIV-1 inhibitory activity

OC[C@H]1O[C@@H](n2cnc3cc(Cl)c(Cl)cc32)[C@H](O)[C@@H]1O [DRB, 5,6-dichloro-1-β-D-ribofuranosylbenzimidazole]
effect of competitor on binding of proteins (p44, p40, p29, p28) to the chrysin-resin [2]: prevented the binding of the same proteins that were competed by free chrysin
effect of competitor on immunodetection of α, α' and β subunits of CKII bound to the chrysin resin [2]: eliminated their immunodetection
effect of competitor on binding of p28 to chrysin resin [2]: the only exception being p28
EC50 (HIV-1 [1]; Human immunodeficiency virus 1, TNF-α-treated OM-10.1 cultures, RT measured 48 hr after HIV activation, read-out: ED50, reduction in culture supernatant reverse transcriptase activity): ~2000 nM
HIV-1 inhibitory activity in the OM-10.1 induction system (HIV-1 [1]): markedly inhibited; also recorded: potently inhibits
effective dose range for inhibition of HIV-1 expression (HIV-1 [1]; TNF-α-treated OM-10.1 cultures): 1 to 10 µM
culture viability / toxicity over the effective dose range (OM-10.1 cells): did not decline
NF-κB activation and function (NF-κB; TNF-α-treated OM-10.1 cultures): appeared normal
degradation of I-κB upon cellular activation (NF-κB; in the presence of compound): Normal degradation
inhibitory activity against casein kinase I (casein kinase I): appreciable inhibitory activity

COc1ccc2c(c1)c(OC(C)C)c(C(N)=O)[s+]2[O-] (stereo not shown) [PD 144795]
effect of competitor on binding of proteins (p44, p40, p29, p28) to the chrysin-resin [2]: pattern of binding inhibition identical to that of DRB
effect of competitor on binding of p28 to chrysin resin [2]: did not alter
inhibition of CKII enzymatic activity [3]: inhibition of CKII enzyme activity
HIV-1 inhibitory activity in the OM-10.1 induction system (HIV-1 [1]): HIV-inhibitory
inhibition of HIV transcription (HIV-1 [4]): inhibiting HIV transcription at micromolar concentrations

O=C1CN=C(c2ccc[nH]2)c2cc(Cl)ccc2N1 [Ro 5-3335]
inhibition of RT (HIV-1 [1]; TNF-α-induced OM-10.1 cultures): inhibits both of these measures to a similar extent
inhibition of down modulation of CD4 (HIV-1 [5]): inhibits both of these measures to a similar extent

O=c1cc(-c2ccc(O)cc2)oc2cc(O)cc(O)c12 [apigenin]
effect of competitor on binding of proteins (p44, p40, p29, p28) to the chrysin-resin [2]: specifically inhibited in their binding to the resin
HIV-1 inhibitory activity in the OM-10.1 induction system (HIV-1 [1]): HIV-inhibitory

O=C(O)[C@H]1O[C@@H](Oc2cc3oc(-c4ccccc4)cc(=O)c3c(O)c2O)[C@H](O)[C@@H](O)[C@@H]1O [baicalin]
inhibition of HIV replication in acutely infected cells (HIV): inhibits HIV replication

Oc1cc(O)c2c(c1)OC(c1ccc(O)c(O)c1)C(O)C2 (stereo not shown) [catechin]
effect of competitor on binding of proteins (p44, p40, p29, p28) to the chrysin-resin [2]: no effect
HIV-1 inhibitory activity in the OM-10.1 induction system (HIV-1 [1]): lacking HIV-1 inhibitory activity

O=c1cc(-c2ccccc2)oc2cc(O)cc(O)c12 [chrysin]
effect of competitor on binding of proteins (p44, p40, p29, p28) to the chrysin-resin [2]: specifically inhibited in their binding to the resin
effect of competitor on immunodetection of α, α' and β subunits of CKII bound to the chrysin resin [2]: eliminated their immunodetection
kinetics of CKII inhibition with respect to ATP [3]: competitive kinetics with respect to ATP
inhibition of CKII enzymatic activity [3]: inhibit human recombinant CKII enzymatic activity
inhibition of HIV transcription (HIV-1 [4]): potent inhibitors
inhibition of HIV replication in acutely infected cells (HIV): significant inhibitory activity

COc1ccc([C@@H]2CC(=O)c3c(O)cc(O[C@@H]4O[C@H](CO[C@@H]5O[C@@H](C)[C@H](O)[C@@H](O)[C@H]5O)[C@@H](O)[C@H](O)[C@H]4O)cc3O2)cc1O [hesperidin]
effect of competitor on binding of proteins (p44, p40, p29, p28) to the chrysin-resin [2]: no effect
HIV-1 inhibitory activity in the OM-10.1 induction system (HIV-1 [1]): lacking HIV-1 inhibitory activity
